Test results as given in the supplement of paper PMC10307832.

Assays:
Experiment in all cases: relative viability (nuclei count vs DMSO), 5 days (fraction); higher = more cells survive
[1] = compound: C[C@@H](N)c1ccc(C(=O)Nc2ccnc3[nH]ccc23)cc1 + N=C(N)NC(=N)NCCc1ccccc1 [Phenformin] (partner 250 µM)
How it was run: (§1)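 One day after seeding in 1536-well plates, lung cancer cell lines were dosed by pin tool. Dosing was either single-drug or a fixed anchor-drug dose plus five library-drug doses (not always all listed) in √10 steps. After 5 days, nuclei were stained in one fix-and-stain step and counted on 4× images, and relative viability is the nuclei count of treated wells over that of vehicle wells, given as the median of duplicate plates.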

[2] = compound: C[C@@H](N)c1ccc(C(=O)Nc2ccnc3[nH]ccc23)cc1 + Cc1nc(Nc2ncc(C(=O)Nc3c(C)cccc3Cl)s2)cc(N2CCN(CCO)CC2)n1 [Dasatinib] (partner 0.075 µM)
How it was run: as §1

[3] = compound: C[C@@H](N)c1ccc(C(=O)Nc2ccnc3[nH]ccc23)cc1 + NC(=O)Nc1cc(-c2cccc(F)c2)sc1C(=O)N[C@H]1CCCNC1 [AZD7762] (partner 0.2 µM)
How it was run: as §1

Tanzisertib + Decitabine = compound: O[C@H]1CC[C@H](Nc2ncc3nc(Nc4c(F)cc(F)cc4F)n([C@H]4CCOC4)c3n2)CC1 [Tanzisertib] + Nc1ncn([C@H]2C[C@H](O)[C@@H](CO)O2)c(=O)n1 [Decitabine] (partner 2 µM)
How it was run: as §1

| Cell Line | relative viability ([1]; first compound 0.04 µM) | relative viability ([1]; first compound 0.1265 µM) | relative viability ([1]; first compound 0.4 µM) | relative viability ([1]; first compound 1.265 µM) | relative viability ([1]; first compound 4 µM) | relative viability ([2]; first compound 0.04 µM) | relative viability ([2]; first compound 0.1265 µM) | relative viability ([2]; first compound 0.4 µM) | relative viability ([2]; first compound 1.265 µM) | relative viability ([2]; first compound 4 µM) | relative viability ([3]; first compound 0.04 µM) | relative viability ([3]; first compound 0.1265 µM) | relative viability ([3]; first compound 0.4 µM) | relative viability ([3]; first compound 1.265 µM) | relative viability ([3]; first compound 4 µM) | relative viability (Tanzisertib + Decitabine; first compound 0.08 µM) | relative viability (Tanzisertib + Decitabine; first compound 0.253 µM) | relative viability (Tanzisertib + Decitabine; first compound 0.8 µM) | relative viability (Tanzisertib + Decitabine; first compound 2.53 µM) | relative viability (Tanzisertib + Decitabine; first compound 8 µM) |
| --- | --- | --- | --- | --- | --- | --- | --- | --- | --- | --- | --- | --- | --- | --- | --- | --- | --- | --- | --- | --- |
| 201T | 0.427 | 0.442 | 0.462 | 0.428 | 0.473 | 0.667 | 0.635 | 0.674 | 0.738 | 0.808 | 0.644 | 0.678 | 0.668 | 1.01 | 0.783 | 0.862 | 0.902 | 0.853 | 0.857 | 0.85 |
| A549 | 0.0717 | 0.256 | 0.279 |  | 0.164 |  |  |  |  |  |  |  |  |  |  | 0.246 | 0.25 | 0.277 | 0.267 | 0.127 |
| A-427 | 0.287 | 0.402 | 0.332 |  | 0.284 | 0.483 | 0.666 | 0.707 |  | 0.506 | 0.708 | 0.751 | 0.779 | 0.806 | 0.665 | 0.58 | 0.567 | 0.569 | 0.537 | 0.631 |
| ABC-1 | 0.254 | 0.262 | 0.227 |  | 0.243 | 0.577 | 0.552 | 0.648 | 0.507 | 0.445 |  | 0.861 | 0.808 |  | 0.554 | 1.03 | 0.958 | 0.976 | 1.18 | 0.836 |
| BEN | 0.279 | 0.265 | 0.258 | 0.267 | 0.248 | 0.245 | 0.252 | 0.396 | 0.319 | 0.265 | 0.607 | 0.879 | 0.841 | 0.913 | 0.663 | 0.707 | 0.766 | 0.782 | 0.702 | 0.57 |
| CAL-12T | 0.674 | 0.609 | 0.665 | 0.538 | 0.56 | 0.52 | 0.524 | 0.461 | 0.316 | 0.338 | 0.625 | 0.682 | 0.606 | 0.784 | 0.803 |  |  |  |  |  |
| COR-L23 | 0.44 | 0.526 | 0.442 | 0.28 | 0.277 | 0.44 | 0.511 | 0.466 | 0.424 | 0.266 |  |  |  |  |  | 0.454 | 0.502 | 0.411 | 0.511 | 0.467 |
| COR-L 105 | 0.446 | 0.492 | 0.523 | 0.423 | 0.377 | 0.247 | 0.317 | 0.372 | 0.241 | 0.216 |  |  |  |  |  | 0.697 | 0.659 | 0.643 | 0.751 | 0.538 |
| ChaGo-K-1 | 0.495 | 0.493 | 0.46 | 0.346 | 0.507 | 0.475 | 0.554 | 0.541 | 0.54 | 0.42 | 0.832 | 0.862 | 0.978 | 0.838 | 0.816 | 0.519 | 0.531 | 0.493 | 0.512 | 0.537 |
| EKVX | 0.228 | 0.245 | 0.241 | 0.124 | 0.222 | 0.624 | 0.533 | 0.561 | 0.248 | 0.455 | 0.708 | 0.714 | 0.896 | 0.745 | 0.707 | 0.371 | 0.356 | 0.41 | 0.323 | 0.324 |
| EMC-BAC-2 | 0.41 | 0.553 | 0.469 | 0.404 | 0.409 | 0.263 | 0.337 | 0.314 | 0.266 | 0.315 | 0.946 | 1.09 | 1.17 | 1.03 | 0.895 | 1.05 | 0.947 | 0.957 | 0.96 | 0.937 |
| EPLC-272H | 0.365 | 0.44 | 0.279 | 0.198 | 0.241 | 0.43 | 0.278 | 0.32 | 0.211 | 0.182 | 0.0944 | 0.216 | 0.18 |  | 0.439 | 0.43 | 0.366 | 0.43 | 0.381 | 0.353 |
| H3255 | 0.396 | 0.332 | 0.337 | 0.348 | 0.322 | 0.344 | 0.432 | 0.519 | 0.331 | 0.4 | 0.929 | 1.07 | 1.11 | 1.07 | 0.724 | 0.799 | 0.598 | 0.647 | 0.482 | 0.448 |
| HARA |  | 0.481 | 0.495 |  | 0.355 |  | 0.287 | 0.225 |  | 0.237 | 0.275 | 0.266 | 0.3 | 0.965 | 0.311 | 0.602 | 0.579 | 0.504 | 0.566 | 0.539 |
| HCC-15 | 0.447 | 0.465 | 0.437 |  | 0.424 | 0.633 | 0.574 | 0.603 |  | 0.442 | 1.19 | 1.23 | 1.4 | 1.18 | 1.28 | 0.66 | 0.674 | 0.737 | 0.659 | 0.647 |
| HCC-44 | 0.138 | 0.172 | 0.285 | 0.1 | 0.218 |  |  |  |  |  | 1.07 | 1.01 | 1.09 | 1.26 | 1.09 | 0.94 | 0.978 | 0.998 | 0.975 | 0.955 |
| HCC-78 | 1.05 | 0.818 | 0.855 | 0.797 | 0.797 | 0.556 | 0.376 | 0.51 | 0.388 | 0.614 | 0.798 | 0.624 | 0.788 | 0.856 | 0.477 | 0.683 | 0.675 | 0.666 | 0.704 | 0.622 |
| HCC-366 | 0.583 | 0.66 | 0.617 |  | 0.57 | 0.544 | 0.621 | 0.483 |  | 0.508 | 0.174 | 0.32 | 0.434 | 0.588 | 0.359 |  | 0.381 | 0.382 | 0.348 | 0.254 |
